Paper PMC9689838, “Screening and Identification of Novel Soluble Epoxide Hydrolase Inhibitors from Corn Gluten Peptides” (Foods, 2022)
Where two headings read alike, the source gives them in different places. Where a SMILES comes first, the peptide text is derived from it.

Legend:
[1] = molecular target: T1, Human soluble epoxide hydrolase (sEH) (Homo sapiens, UniProt P34913); assay: sEH inhibitory activity assay with fluorescent substrate PHOME; type: biochemical; details: 10 µM PHOME, 40 min, mean ± SD n = 3; for inhibition at 100 µM: peptide 100 µM final, 62.5 ng/mL sEH, 37 °C; for IC50: synthesized peptides 20-100 µM
T1 construct: purchased Cayman Chemical (Ann Arbor, MI, USA)
T1 sequence (P34913 1-555): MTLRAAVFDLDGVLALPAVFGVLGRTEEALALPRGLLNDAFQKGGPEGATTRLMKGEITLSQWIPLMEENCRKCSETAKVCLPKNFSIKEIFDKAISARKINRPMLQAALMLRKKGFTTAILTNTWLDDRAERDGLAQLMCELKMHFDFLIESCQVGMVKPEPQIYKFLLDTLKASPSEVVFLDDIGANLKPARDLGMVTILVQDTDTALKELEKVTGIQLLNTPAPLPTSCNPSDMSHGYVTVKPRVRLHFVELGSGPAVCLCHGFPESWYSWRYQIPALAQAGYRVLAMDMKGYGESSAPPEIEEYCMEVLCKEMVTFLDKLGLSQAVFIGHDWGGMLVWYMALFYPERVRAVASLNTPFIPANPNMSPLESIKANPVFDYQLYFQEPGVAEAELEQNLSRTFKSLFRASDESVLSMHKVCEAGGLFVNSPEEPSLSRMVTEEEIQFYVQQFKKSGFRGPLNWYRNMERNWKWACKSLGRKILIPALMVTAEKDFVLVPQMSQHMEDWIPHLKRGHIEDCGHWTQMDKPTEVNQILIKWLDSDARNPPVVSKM
Protocol: The effects of the concentrations of the enzyme, substrate, and the hydrolysis time of sEH on PHOME were determined according to the methods reported previously. […] After incubating at 37 °C for 5 to 50 min, the fluorescence intensity was measured at an emission wavelength of 465 nm and an excitation wavelength of 330 nm. Bis-Tris-HCl instead of PHOME was used as the blank control. The reaction rate of the system was calculated as follows:(1) The reaction rate (RFU/min)=St - Ct/t where St (RFU) and Ct (RFU) represent the fluorescence intensity of the sample and blank group at t min, respectively. The t (min) represents the reaction time.
The sEH inhibitory activities of peptides were determined as above described. Briefly, 130 µL of 62.5 ng/mL human sEH solution (final concentrations, dissolved in 25 mM bis-Tris-HCl containing 0.1% BSA, pH 7.0) and 20 µL of peptides (final concentrations: synthesized peptides, 20, 40, 60, 80, and 100 µM; corn gluten peptides, 1, 2, 3, 4, and 5 mg/mL, respectively) were added to 96-well plate followed by adding 50 µL of 10 µM PHOME solution (final concentration, dissolved in 25 mM bis-Tris-HCl containing 0.1% BSA, pH 7.0). After incubating at 37 °C for 5 to 40 min, the fluorescence intensity of the mixture at an emission wavelength of 465 nm and an excitation wavelength of 330 nm was determined. […] The sEH inhibitory activity was calculated as follows:(2) sEH inhibitory activity (%)=C40 - S40/C40 - C0×100% where C40 (RFU) and C0 (RFU) represented the fluorescence intensity of the blank control group at 40 and 0 min, respectively. S40 (RFU) represented the fluorescence intensity of the sample group at 40 min.

sEH = details: read-out: IC50, sEH inhibitory activity, cited from earlier work
[2] = isolated from Capsicum chinense

N[C@@H](Cc1c[nH]c2ccccc12)C(=O)N[C@@H](Cc1ccc(O)cc1)C(=O)N[C@@H](Cc1c[nH]c2ccccc12)C(=O)O [WYW] (H-Trp-Tyr-Trp-OH)
inhibition at 100 µM [1]: 60.3 ± 5.6%
IC50 [1]: 70.7 ± 9.9 µM

N[C@@H](Cc1c[nH]c2ccccc12)C(=O)N[C@@H](Cc1c[nH]c2ccccc12)C(=O)N[C@@H](Cc1ccc(O)cc1)C(=O)O [WWY] (H-Trp-Trp-Tyr-OH)
inhibition at 100 µM [1]: 55.1 ± 2.38%
IC50 [1]: 68.8 ± 7.72 µM

N[C@@H](Cc1ccc(O)cc1)C(=O)N[C@@H](Cc1ccccc1)C(=O)N[C@@H](Cc1ccc(O)cc1)C(=O)O [YFY] (H-Tyr-Phe-Tyr-OH)
inhibition at 100 µM [1]: 53 ± 3.09%
IC50 [1]: 94.1 ± 12.9 µM

N[C@@H](Cc1ccc(O)cc1)C(=O)N[C@@H](Cc1ccccc1)C(=O)N[C@@H](Cc1c[nH]c2ccccc12)C(=O)O [YFW] (H-Tyr-Phe-Trp-OH)
inhibition at 100 µM [1]: 57.4 ± 7.62%
IC50 [1]: 96 ± 7.5 µM

COc1cc(CNC(=O)CCCCCCC(C)C)ccc1O [dihydrocapsaicin]
IC50 (sEH; [2]): 7.3 ± 0.7 µM

COc1cc(CNC(=O)CCCC/C=C/C(C)C)ccc1O [capsaicin]
IC50 (sEH; [2]): 5.6 ± 1.2 µM

CC(C)CNC(=O)/C=C/C=C/c1ccc2c(c1)OCO2 [piperlonguminine]
IC50 (sEH; from Scutellaria baicalensis): 6.06 ± 0.12 µM

C[C@H]1[C@H](C)CC[C@]2(C(=O)O)CC[C@]3(C)C(=CC[C@@H]4[C@@]5(C)C[C@@H](O)[C@H](O)C(C)(C)[C@@H]5CC[C@]43C)[C@H]12 [corosolic acid]
IC50 (sEH): 51.3 ± 4.9 µM

C[C@@H]1CC[C@]2(C(=O)O)CC[C@]3(C)C(=CC[C@@H]4[C@@]5(C)CC(=O)[C@H](O)C(C)(C)[C@@H]5CC[C@]43C)[C@@H]2[C@]1(C)O [2-oxopomolic acid]
IC50 (sEH): 11.4 ± 2.7 µM

CC(C)CNC(=O)/C=C/CCc1ccc2c(c1)OCO2 [dihydropiperlonguminine]
IC50 (sEH; from Scutellaria baicalensis): 7.83 ± 0.52 µM

CC(C)C(=O)Nc1ccc([N+](=O)[O-])c(C(F)(F)F)c1 [flutamide]
IC50 (sEH; from Scutellaria baicalensis): 6.32 ± 0.31 µM

O=c1c(O)c(-c2ccc(O)c(O)c2)oc2cc(O)cc(O)c12 [quercetin]
IC50 (sEH): 22.5 ± 0.9 µM

N[C@@H](Cc1c[nH]c2ccccc12)C(=O)N[C@@H](CCC(=O)O)C(=O)N[C@@H](Cc1ccc(O)cc1)C(=O)O [WEY] (H-Trp-Glu-Tyr-OH)
inhibition at 100 µM [1]: 70 ± 6.25%
IC50 [1]: 55.4 ± 1.55 µM

C[C@H]1[C@H](C)CC[C@]2(C(=O)O)CC[C@]3(C)C(=CC[C@@H]4[C@@]5(C)CC[C@H](O)C(C)(C)[C@@H]5CC[C@]43C)[C@H]12 [ursolic acid]
IC50 (sEH): 84.5 ± 9.5 µM

O=c1c(O[C@H]2OC[C@@H](O)[C@@H](O)[C@@H]2O)c(-c2ccc(O)c(O)c2)oc2cc(O)cc(O)c12 [quercetin-3-O-arabinoside]
IC50 (sEH): 39.3 ± 3.4 µM

CCCCC/C=C/C=C/C(=O)NCC(C)C [pellitorine]
IC50 (sEH; from Scutellaria baicalensis): 93.7 ± 4.52 µM

O=c1c(O)c(-c2ccc(O)cc2)oc2cc(O)cc(O)c12 [kaempferol]
IC50 (sEH): 31.3 ± 2.6 µM
